From PMC7248877, “Synthesis and Spectral Identification of Three Schiff Bases with a 2-(Piperazin-1-yl)-N-(thiophen-2-yl methylene)ethanamine Moiety Acting as Novel Pancreatic Lipase Inhibitors: Thermal, DFT, Antioxidant, Antibacterial, and Molecular Docking Investigations” (Molecules, 2020)

Target: T1, porcine pancreatic lipase (Sus scrofa, UniProt P00591)
T1 construct: gene PNLIP
T1 sequence (P00591 1-450): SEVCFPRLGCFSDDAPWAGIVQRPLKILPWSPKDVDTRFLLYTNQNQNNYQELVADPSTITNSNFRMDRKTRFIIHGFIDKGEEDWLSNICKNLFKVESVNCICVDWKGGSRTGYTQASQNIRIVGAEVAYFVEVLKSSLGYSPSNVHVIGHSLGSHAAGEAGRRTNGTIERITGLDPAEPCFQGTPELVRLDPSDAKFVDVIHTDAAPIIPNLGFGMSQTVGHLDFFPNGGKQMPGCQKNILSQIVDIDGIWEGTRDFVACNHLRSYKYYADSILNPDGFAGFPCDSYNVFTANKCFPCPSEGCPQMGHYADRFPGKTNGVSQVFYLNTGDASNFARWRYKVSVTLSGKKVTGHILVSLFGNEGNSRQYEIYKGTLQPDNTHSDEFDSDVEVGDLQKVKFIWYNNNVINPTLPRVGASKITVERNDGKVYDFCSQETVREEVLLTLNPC
Assay: p-nitrophenyl butyrate hydrolysis assay, absorbance at […] nm
Format: biochemical

SMILES	IC50 [mM]
CC(=NCCN1CCNCC1)c1ccc(Cl)s1 [L1, N-(1-(5-Chlorothiophen-2-yl)ethylidene)-2-(piperazin-1-yl)ethanamine]	1.16
C(=N\CCN1CCNCC1)/c1cccs1 [L2, 2-(Piperazin-1-yl)-N-(thiophen-2-ylmethylene)ethanamine]	2.24
Brc1ccc(C=NCCN2CCNCC2)s1 [L3, N-((5-Bromothiophen-2-yl)methylene)-2-(piperazin-1-yl)ethanamine]	0.524
